# Patent US11578056B2, “Solid forms comprising (S)-2-(2,6-dioxopiperidin-3-yl)-4-((2-fluoro-4-((3-morpholinoazetidin-1-yl)methyl)benzyl)amino)isoindoline-1,3-dione and salts thereof, and compositions comprising and methods of using the same” (Celgene Corporation, priority 2019, dated 2023)
# What was measured:
# Test in all cases: Hematological cell line viability/apoptosis flow cytometry assay
# Format in all cases: cell-based
# [1] = tested on: OCI-LY18 cell line; conditions: OCI-LY18 (DLBCL); 120 h
# How it was run: (§1)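 Cells were treated with compound at 0.00015 to 10 μM (0.1% DMSO) for 120 hours, then stained with Annexin V and DRAQ7 for flow cytometry. Live (double-negative) counts were normalized to DMSO to fit IC50, Emax and AUC; total early plus late apoptosis gave EC50, Ymax and AUC.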
# [2] = tested on: Mec2 cell line; conditions: Mec2 (CLL), 120 h
# How it was run: as §1
# [3] = tested on: HuT-102 cell line; conditions: HuT-102 (TCL), 120 h
# How it was run: as §1
# [4] = tested on: KARPAS-1106P cell line; conditions: KARPAS-1106P (DLBCL PMBL); 120 h
# How it was run: as §1
# [5] = tested on: STR428 cell line; conditions: STR428 (DLBCL), 120 h
# How it was run: as §1
# [6] = tested on: SU-DHL-8 cell line; conditions: SU-DHL-8 (DLBCL GCB); 120 h
# How it was run: as §1
# [7] = tested on: WSU-DLCL2 cell line; conditions: WSU-DLCL2 (DLBCL GCB); 120 h
# How it was run: as §1
# [8] = tested on: MDS-L cell line; conditions: 120 h
# How it was run: as §1
# [9] = tested on: L-591 cell line; conditions: L-591 (HL), 120 h
# How it was run: as §1
# [10] = tested on: OCI-LY10 cell line; conditions: OCI-LY10 (DLBCL ABC); 120 h
# How it was run: as §1
# [11] = tested on: SK-MM-1 cell line; conditions: SK-MM-1 (MM, PCL), 120 h
# How it was run: as §1
smiles,measurement,setting,value
"O=C1CC[C@H](N2C(=O)c3cccc(NCc4ccc(CN5CC(N6CCOCC6)C5)cc4F)c3C2=O)C(=O)N1 [Compound 1, (S)-2-(2,6-dioxopiperidin-3-yl)-4-((2-fluoro-4-((3-morpholinoazetidin-1-yl)methyl)benzyl)amino)isoindoline-1,3-dione]",% Viable Cells AUC,[1],1.965
same,% Viable Cells Emax,[1],0.05973%
same,Apoptosis AUC,[1],965.2
same,Apoptosis Ymax,[1],97.44%
same,% Viable Cells AUC,[2],312.5
same,% Viable Cells Emax,[2],25.55%
same,Apoptosis AUC,[2],339.8
same,Apoptosis Ymax,[2],35.28%
same,EC50,[2],13.3 nM
same,IC50,[2]; read-out: % Viable Cells IC50,75.5 nM
same,% Viable Cells AUC,[3],395.4
same,% Viable Cells Emax,[3],36.34%
same,Apoptosis AUC,[3],42.75
same,Apoptosis Ymax,[3],18.50%
same,EC50,[3],23400 nM
same,IC50,[3]; read-out: % Viable Cells IC50,6.5 nM
same,% Viable Cells AUC,[4],22.22
same,% Viable Cells Emax,[4],0.1698%
same,Apoptosis AUC,[4],885.2
same,Apoptosis Ymax,[4],97.08%
same,% Viable Cells AUC,[5],43.48
same,% Viable Cells Emax,[5],1.227%
same,Apoptosis AUC,[5],905.9
same,Apoptosis Ymax,[5],95.17%
same,EC50,[5],102 nM
same,IC50,[5]; read-out: % Viable Cells IC50,94.7 nM
same,% Viable Cells AUC,[6],119.5
same,% Viable Cells Emax,[6],2.081%
same,Apoptosis AUC,[6],363.2
same,Apoptosis Ymax,[6],85.44%
same,% Viable Cells AUC,[7],36.7
same,% Viable Cells Emax,[7],1.387%
same,Apoptosis AUC,[7],858.9
same,Apoptosis Ymax,[7],92.1%
same,% Viable Cells AUC,[8],182.6
same,% Viable Cells Emax,[8],146.7%
same,Apoptosis AUC,[8],425.4
same,Apoptosis Ymax,[8],100%
same,EC50,[8],1560 nM
same,IC50,[8]; read-out: % Viable Cells IC50,51.3 nM
same,% Viable Cells AUC,[9],334.2
same,% Viable Cells Emax,[9],34.6%
same,Apoptosis AUC,[9],45.59
same,Apoptosis Ymax,[9],20.0%
same,EC50,[9],1520 nM
same,IC50,[9]; read-out: % Viable Cells IC50,0.3 nM
same,% Viable Cells AUC,[10],125.3
same,% Viable Cells Emax,[10],10.16%
same,Apoptosis AUC,[10],188.9
same,Apoptosis Ymax,[10],22.31%
same,% Viable Cells AUC,[11],202.2
same,% Viable Cells Emax,[11],3%
same,Apoptosis AUC,[11],90.99
same,Apoptosis Ymax,[11],44.5%
same,EC50,[11],86400 nM
same,IC50,[11]; read-out: % Viable Cells IC50,0.8 nM
